Test results published in paper PMC6751662, “Pharmacological and functional similarities of the human neuropeptide Y system in C. elegans challenges phylogenetic views on the FLP/NPR system” (Cell Communication and Signaling : CCS, 2019).

How the values were obtained:
Assay type in all cases: cell-based, C. elegans
[1] = target: T1, NPR-4b (Caenorhabditis elegans, UniProt A0A078BTK0); test: IP accumulation assay, co-transfected Gα16, NPR-4b; conditions: 1 h, HBSS + 20 mM LiCl, HEK293 receptor + Gα16, HTRF IP-One, mean of >=3 independent experiments
T1 sequence (A0A078BTK0 1-376): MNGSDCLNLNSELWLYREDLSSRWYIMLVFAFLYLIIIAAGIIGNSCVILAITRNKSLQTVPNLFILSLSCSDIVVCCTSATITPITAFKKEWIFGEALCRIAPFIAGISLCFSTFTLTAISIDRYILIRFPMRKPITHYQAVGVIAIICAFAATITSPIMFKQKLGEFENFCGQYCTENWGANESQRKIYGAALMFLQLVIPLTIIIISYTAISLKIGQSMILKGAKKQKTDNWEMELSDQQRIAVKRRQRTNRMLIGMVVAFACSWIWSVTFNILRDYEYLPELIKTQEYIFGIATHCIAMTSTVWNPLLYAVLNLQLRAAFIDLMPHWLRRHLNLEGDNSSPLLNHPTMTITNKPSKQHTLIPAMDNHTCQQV
Method: (§1) For measuring IP accumulation, HEK293 cells grown to 70–80% confluency in 6-well plates were transiently co-transfected using Metafectene Pro (2.5 μl/μg DNA; Biontex) with plasmids containing receptor and/or mock (empty pcDNA3.1) (for endogenous Gq-coupling) using 4 μg total DNA in a ratio of 3:1 following the manufacturer’s instructions. For testing Gα16- and GαΔ6qi4myr-coupling, plasmids encoding the corresponding Gα protein were co-transfected instead of mock. Gα16 is naturally promiscuous and stimulates the phospholipase C (PLC) pathway leading to IP production, while the exchange of the C-terminal four amino acids of Gαq for the corresponding residues of Gαi1 in the chimeric GαΔ6qi4myr confers the ability to couple to Gi/o protein-preferring receptors but still stimulate PLC, thus specifically redirecting downstream cellular signaling. 16 h post transfection, the cells were seeded into white 384-well plates at a density of 20,000 cells/well. Media was removed 24 h later and the cells were incubated with the indicated concentration of peptides for 1 h in HBSS + 20 mM LiCl. IP accumulation was measured with the HTRF-based IP-One Gq kit (Cisbio) on a microplate reader (Tecan Spark).
(§2) For in vitro activation, data is presented as mean ± SEM of at least three independent experiments conducted in technical triplicate. […]

[2] = target: T2, NPR-5b (Caenorhabditis elegans, UniProt Q6F3C9); test: cAMP reporter gene assay, Gs (no forskolin), NPR-5b; conditions: no forskolin, 4 h, transiently transfected HEK293, CRE-luciferase reporter, mean of >=3 independent experiments
T2 sequence (Q6F3C9 1-433): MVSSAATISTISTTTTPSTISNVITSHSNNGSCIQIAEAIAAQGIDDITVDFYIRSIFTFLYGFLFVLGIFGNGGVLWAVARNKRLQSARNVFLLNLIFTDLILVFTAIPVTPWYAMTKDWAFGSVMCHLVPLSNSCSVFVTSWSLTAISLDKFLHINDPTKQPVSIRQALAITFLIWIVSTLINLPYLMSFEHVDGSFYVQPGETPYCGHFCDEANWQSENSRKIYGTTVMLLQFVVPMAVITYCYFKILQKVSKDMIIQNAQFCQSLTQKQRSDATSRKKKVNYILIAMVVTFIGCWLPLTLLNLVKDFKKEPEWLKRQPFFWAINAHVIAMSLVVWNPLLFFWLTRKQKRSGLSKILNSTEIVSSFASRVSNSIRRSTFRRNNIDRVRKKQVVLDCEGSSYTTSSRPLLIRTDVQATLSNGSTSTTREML
Method: Activation of Gs and Gi/o was assessed with a cAMP reporter gene assay. HEK293 cells grown to 70–80% confluency in 6-well plates were transiently co-transfected with vectors encoding the receptor and the cAMP reporter gene plasmid pGL4.29 [luc2P/CRE/Hygro] (Promega; 4 μg total, 1:1 ratio) using Metafectene Pro (3 μl/μg DNA; Biontex) following the manufacturer’s instructions. 16 h post transfection, the cells were seeded into white 384-well plates at a density of 20,000 cells/well. On the next day, the medium was removed and the cells were stimulated with 20 μl of peptide solution (or forskolin as positive control) in serum-free DMEM for 4 h. For measuring Gi/o activity, the peptide solutions additionally contained 1 μM forskolin to elevate cellular cAMP levels. After incubation, the luciferase substrate OneGlo in lysis buffer (Promega) was added and the luminescence was measured in a microplate reader Tecan Spark (Tecan). Data were analyzed with GraphPad Prism 5.03 and are shown as fold of basal or fold of forskolin in case of Gαi/o activity.
For in vitro activation, data is presented as mean ± SEM of at least three independent experiments conducted in technical triplicate. […] For the C. elegans NPRs, we considered the strongest response elicited by any of the peptides downstream of a particular receptor as the receptor’s maximal signal. This may or may not be the biological maximum that can be reached by the ‘true’ endogenous agonist. For the human receptors, the response to the established endogenous agonist reflected the maximal signal.

[3] = target: T3, NPR-3 (Caenorhabditis elegans, UniProt P90745); test: IP accumulation assay, endogenous Gαq + mock, NPR-3; conditions: 1 h, HBSS + 20 mM LiCl, HEK293 receptor + empty vector, HTRF IP-One, mean of >=3 independent experiments
T3 construct: expressed in transfected cells; host or cells: HEK293
T3 sequence (P90745 1-376): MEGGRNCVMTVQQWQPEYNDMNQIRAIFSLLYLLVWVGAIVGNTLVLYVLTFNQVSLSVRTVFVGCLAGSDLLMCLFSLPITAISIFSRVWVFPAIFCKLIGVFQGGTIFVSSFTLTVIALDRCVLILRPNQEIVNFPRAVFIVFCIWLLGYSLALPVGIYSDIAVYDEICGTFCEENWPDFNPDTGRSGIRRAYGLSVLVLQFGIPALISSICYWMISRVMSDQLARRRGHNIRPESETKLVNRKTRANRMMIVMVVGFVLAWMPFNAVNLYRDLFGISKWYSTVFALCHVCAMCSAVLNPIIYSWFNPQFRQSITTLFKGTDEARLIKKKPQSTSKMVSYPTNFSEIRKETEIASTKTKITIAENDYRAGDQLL
Method: as §1, §2

[4] = tested on: NPR-6; test: IP accumulation assay, co-transfected Gα16, NPR-6; conditions: 1 h, HBSS + 20 mM LiCl, HEK293 receptor + Gα16, HTRF IP-One, mean of >=3 independent experiments
Method: as §1, §2

[5] = target: T2, NPR-5b; test: IP accumulation assay, endogenous Gαq + mock, NPR-5b; conditions: 1 h, HBSS + 20 mM LiCl, HEK293 receptor + empty vector, HTRF IP-One, mean of >=3 independent experiments
Method: as §1, §2

[6] = 0.1 nM peptide (so in the source)

## APKPKFIRF-NH2 [FLP-5-1, C. elegans FMRFamide-like peptide, C-terminally amidated, synthesized by SPPS]
[1]; [6]
  IP assay endog. Gαq + Gα16, NPR-4b: 1.04 x-fold of basal
[1]; 10 µM peptide
  IP assay endog. Gαq + Gα16, NPR-4b: 0.84 x-fold of basal
[2]; 0.1 µM peptide
  cAMP assay Gs, NPR-5b: 0.68 x-fold of basal
[2]; 10 µM peptide
  cAMP assay Gs, NPR-5b: 0.68 x-fold of basal
[3]; [6]
  IP assay endog. Gαq + mock, NPR-3: 0.92 x-fold of basal
[3]; 10 µM peptide
  IP assay endog. Gαq + mock, NPR-3: 1.07 x-fold of basal
[4]; [6]
  IP assay endog. Gαq + Gα16, NPR-6: 1.01 x-fold of basal
[4]; 10 µM peptide
  IP assay endog. Gαq + Gα16, NPR-6: 0.96 x-fold of basal
[5]; [6]
  IP assay endog. Gαq + mock, NPR-5b: 0.93 x-fold of basal
[5]; 10 µM peptide
  IP assay endog. Gαq + mock, NPR-5b: 1.11 x-fold of basal
